# Source: patent US20240024273A1, “TOPICAL ADMINISTRATION OF 2-(DIETHYLAMINO)ETHYL 2-(4-ISOBUTYLPHENYL)PROPRIONATE FOR TREATMENT OF DISEASES” (TECHFIELDS PHARMA CO., LTD., priority 2020, published 2024)
# System: Mild to Moderate Osteoarthritis of the Knee
# Test: Phase 2 study: WOMAC joint stiffness subscale score
# Type: in vivo, human
# Conditions: for Change of WOMAC Joint Stiffness score from baseline (±SEM), adjusted by […] of the Testing Drug Amount / Percentage of improvement from baseline, WOMAC Joint Stiffness score, adjusted by […] of the Testing Drug Amount / Change of WOMAC Joint Stiffness score from baseline (±SEM) / Percentage of improvement from baseline, WOMAC Joint Stiffness score: 35 mg/knee (BID); for Change of WOMAC Joint Stiffness score from baseline (±SEM) / Percentage of improvement from baseline, WOMAC Joint Stiffness score: all patients taken as active; for WOMAC Joint Stiffness Subscale Score, Avg.: Avg. of all patients; for WOMAC Joint Stiffness Subscale Score, Avg. / WOMAC Joint Stiffness Subscale Score: blinded; for WOMAC Joint Stiffness Subscale Score: individual patient
# Text: This is a Phase 2, multicenter, randomized, double blind (within dose), placebo controlled, parallel group, proof of concept, and dose range finding study to evaluate the efficacy, safety, and PK of 2-(diethylamino)ethyl 2-(4-isobutylphenyl)propionate hydrochloride spray in adult subjects with clinically symptomatic mild to moderate OA of the knee. For subjects with bilateral knee pain, both knees will be treated, but the most symptomatic knee (i.e., the most painful knee as measured by the Western Ontario and McMaster University Osteoarthritis Index [WOMAC® 3.1] pain subscale score at Screening) will be designated as the target knee for efficacy analyses. For subjects with unilateral knee pain, only the symptomatic (target) knee will be treated.
# After a Screening Period of up to 3 weeks and radiographic evaluation of the target knee joint space, a subject will be randomly assigned to 1 of 3 treatment groups in a 1:1:1 ratio with a 2:1 ratio of active:placebo within each treatment group (ie, 2 subjects to active treatment and 1 subject to placebo): • Group A: 8.75 mg 2-(diethylamino)ethyl 2-(4-isobutylphenyl)propionate/knee (2 sprays/knee, one spray to the medial surface and one spray to the lateral surface of the knee), twice daily (BID, approximately every 12 hours; n=50) or placebo (2 sprays/knee), BID (approximately every 12 hours; n=25) for a total of 4 sprays per knee per day; • Group B: 17.5 mg 2-(diethylamino)ethyl 2-(4-isobutylphenyl)propionate/knee (4 sprays/knee, one spray to the medial surface and one spray to the lateral surface of the knee, and one spray to front and one spray to the back of the knee), BID (approximately every 12 hours; n=50) or placebo (4 sprays/knee), BID (approximately every 12 hours; n=25) for a total of 8 sprays per knee per day; • Group C: 35 mg 2-(diethylamino)ethyl 2-(4-isobutylphenyl)propionate/knee (8 sprays/knee, each spray is to be applied to a different non-overlapping area around the knee, and the areas are to be uniformly distributed around the knee), BID (approximately every 12 hours; n=50) or placebo (8 sprays/knee), BID (approximately every 12 hours; n=25) for a total of 16 sprays per knee per day.
# The VAS version of the WOMAC will be used for the Primary and Secondary Efficacy Endpoints. Efficacy endpoints will be assessed at Screening and Baseline (Day 1) and at the Week 2, Week 4, Week 8, and Week 12/EOS visits.
# 3.9.2. Secondary Efficacy Endpoints: • 1. Change from Baseline in the WOMAC (VAS) pain subscale score for the target knee at 2, 4, and 8 weeks of treatment; • 2. Change from Baseline in the WOMAC (VAS) stiffness subscale scores for the target knee and WOMAC (VAS) functional ability subscale scores at 2, 4, 8, and 12 weeks of treatment; • 3. Change from Baseline in the overall WOMAC (VAS) score at 2, 4, 8, and 12 weeks of treatment.
# The Secondary Efficacy Endpoints, change from Baseline in the WOMAC subscale scores for pain, stiffness, and functional ability, and overall WOMAC score at 2, 4, 8, and 12 weeks of treatment, will be analyzed using the same methods as for the Primary Efficacy Endpoint.
# To determine this, we assumed that all patients received 2-(diethylamino)ethyl 2-(4-isobutylphenyl)propionate, active drug treatment (i.e. all patients who received 2-(diethylamino)ethyl 2-(4-isobutylphenyl)propionate or placebo treatment for 12 weeks or mixed up treatment during the 12-week treatment, as 2-(diethylamino)ethyl 2-(4-isobutylphenyl)propionate-treated). Based on this assumption, that is, to treat this trial as an open-label study and that all patients received active treatment, we conducted efficacy analysis using top-line efficacy datasets prepared by CRO and the re-analysis results are presented in the following tables (Tables 29-47). […] (William G. Bensen, Justus J. Fiechtner, James 1. McMillen, et. al. Treatment of Osteoarthritis with Celecoxib. Mayo Clin Proc, November 1999. Vol 74, 1095-1105.)
# [1] = Middle Dose (4 spray/knee, 17.5 mg/knee) Cohort, Day 1
# [2] = Middle Dose (4 spray/knee, 17.5 mg/knee) Cohort, Week 2
compound,measurement,setting,value
CCN(CC)CCOC(=O)C(C)c1ccc(CC(C)C)cc1 (centres unmarked) [2-(diethylamino)ethyl 2-(4-isobutylphenyl)propionate],"Change of WOMAC Joint Stiffness score from baseline (±SEM), adjusted by […] of the Testing Drug Amount",Week 8 (day 56),−36.9(±5.8) mm
same,"Percentage of improvement from baseline, WOMAC Joint Stiffness score, adjusted by […] of the Testing Drug Amount",Week 8 (day 56),−59.3%
same,Change of WOMAC Joint Stiffness score from baseline (±SEM),Week 8 (day 56),−21.5(±3.4) mm
same,"Percentage of improvement from baseline, WOMAC Joint Stiffness score",Week 8 (day 56),−34.6%
same,"Change of WOMAC Joint Stiffness score from baseline (±SEM), adjusted by […] of the Testing Drug Amount",Week 12 (day 84),−41.2(±5.7) mm
same,"Percentage of improvement from baseline, WOMAC Joint Stiffness score, adjusted by […] of the Testing Drug Amount",Week 12 (day 84),−66.2%
same,Change of WOMAC Joint Stiffness score from baseline (±SEM),Week 12 (day 84),−24.0(±3.3) mm
same,"Percentage of improvement from baseline, WOMAC Joint Stiffness score",Week 12 (day 84),−38.6%
same,reduction of Stiffness WOMAC from baseline to week 12,5 patients on second batch active drug kits,58.6-100%
same,"WOMAC Joint Stiffness Subscale Score, Avg.","35 mg/knee (8 spray/knee), Day 1",62.1
same,"WOMAC Joint Stiffness Subscale Score, Avg.","35 mg/knee (8 spray/knee), Follow-up",37.7
same,"WOMAC Joint Stiffness Subscale Score, Avg.","35 mg/knee (8 spray/knee), Week 2",50.8
same,"WOMAC Joint Stiffness Subscale Score, Avg.","35 mg/knee (8 spray/knee), Week 4",44.5
same,"WOMAC Joint Stiffness Subscale Score, Avg.","35 mg/knee (8 spray/knee), Week 8",40.6
same,"WOMAC Joint Stiffness Subscale Score, Avg.","35 mg/knee (8 spray/knee), Week 12",38.1
same,"WOMAC Joint Stiffness Subscale Score, Avg.",[1],68.0
same,"WOMAC Joint Stiffness Subscale Score, Avg.","Middle Dose (4 spray/knee, 17.5 mg/knee) Cohort, Follow-up",41.9
same,"WOMAC Joint Stiffness Subscale Score, Avg.",[2],49.2
same,"WOMAC Joint Stiffness Subscale Score, Avg.","Middle Dose (4 spray/knee, 17.5 mg/knee) Cohort, Week 4",44.7
same,"WOMAC Joint Stiffness Subscale Score, Avg.","Middle Dose (4 spray/knee, 17.5 mg/knee) Cohort, Week 8",41.5
same,"WOMAC Joint Stiffness Subscale Score, Avg.","Middle Dose (4 spray/knee, 17.5 mg/knee) Cohort, Week 12",38.2
same,"WOMAC Joint Stiffness Subscale, WOMAC VAS Score","Patient 1056, second batch active drug kits, Day 1",48.5 mm
same,"WOMAC Joint Stiffness Subscale, WOMAC VAS Score","Patient 1056, second batch active drug kits, Follow Up",17.0 mm
same,"WOMAC Joint Stiffness Subscale, WOMAC VAS Score","Patient 1056, second batch active drug kits, Week 2",45.0 mm
same,"WOMAC Joint Stiffness Subscale, WOMAC VAS Score","Patient 1056, second batch active drug kits, Week 4",44.5 mm
same,"WOMAC Joint Stiffness Subscale, WOMAC VAS Score","Patient 1056, second batch active drug kits, Week 8",43.5 mm
same,"WOMAC Joint Stiffness Subscale, WOMAC VAS Score","Patient 1056, second batch active drug kits, Week 12",23.5 mm
same,"WOMAC Joint Stiffness Subscale, WOMAC VAS Score","Patient 1064, second batch active drug kits, Day 1",66.5 mm
same,"WOMAC Joint Stiffness Subscale, WOMAC VAS Score","Patient 1064, second batch active drug kits, Follow Up",1.0 mm
same,"WOMAC Joint Stiffness Subscale, WOMAC VAS Score","Patient 1064, second batch active drug kits, Week 2",20.5 mm
same,"WOMAC Joint Stiffness Subscale, WOMAC VAS Score","Patient 1064, second batch active drug kits, Week 4",12.5 mm
same,"WOMAC Joint Stiffness Subscale, WOMAC VAS Score","Patient 1064, second batch active drug kits, Week 8",0.0 mm
same,"WOMAC Joint Stiffness Subscale, WOMAC VAS Score","Patient 1064, second batch active drug kits, Week 12",1.0 mm
same,"WOMAC Joint Stiffness Subscale, WOMAC VAS Score","Patient 1535, second batch active drug kits, Day 1",55.0 mm
same,"WOMAC Joint Stiffness Subscale, WOMAC VAS Score","Patient 1535, second batch active drug kits, Follow Up",0.0 mm
same,"WOMAC Joint Stiffness Subscale, WOMAC VAS Score","Patient 1535, second batch active drug kits, Week 2",3.5 mm
same,"WOMAC Joint Stiffness Subscale, WOMAC VAS Score","Patient 1535, second batch active drug kits, Week 4",3.0 mm
same,"WOMAC Joint Stiffness Subscale, WOMAC VAS Score","Patient 1535, second batch active drug kits, Week 8",3.0 mm
same,"WOMAC Joint Stiffness Subscale, WOMAC VAS Score","Patient 1535, second batch active drug kits, Week 12",0.0 mm
same,"WOMAC Joint Stiffness Subscale, WOMAC VAS Score","Patient 1539, second batch active drug kits, Day 1",70.0 mm
same,"WOMAC Joint Stiffness Subscale, WOMAC VAS Score","Patient 1539, second batch active drug kits, Follow Up",2.0 mm
same,"WOMAC Joint Stiffness Subscale, WOMAC VAS Score","Patient 1539, second batch active drug kits, Week 2",54.5 mm
same,"WOMAC Joint Stiffness Subscale, WOMAC VAS Score","Patient 1539, second batch active drug kits, Week 4",44.0 mm
same,"WOMAC Joint Stiffness Subscale, WOMAC VAS Score","Patient 1539, second batch active drug kits, Week 8",8.0 mm
same,"WOMAC Joint Stiffness Subscale, WOMAC VAS Score","Patient 1539, second batch active drug kits, Week 12",3.0 mm
same,"WOMAC Joint Stiffness Subscale, WOMAC VAS Score","Patient 9032, second batch active drug kits, Day 1",14.5 mm
same,"WOMAC Joint Stiffness Subscale, WOMAC VAS Score","Patient 9032, second batch active drug kits, Follow Up",9.5 mm
same,"WOMAC Joint Stiffness Subscale, WOMAC VAS Score","Patient 9032, second batch active drug kits, Week 2",9.5 mm
same,"WOMAC Joint Stiffness Subscale, WOMAC VAS Score","Patient 9032, second batch active drug kits, Week 4",5.0 mm
same,"WOMAC Joint Stiffness Subscale, WOMAC VAS Score","Patient 9032, second batch active drug kits, Week 8",3.0 mm
same,"WOMAC Joint Stiffness Subscale, WOMAC VAS Score","Patient 9032, second batch active drug kits, Week 12",6.0 mm
same,WOMAC Joint Stiffness Subscale Score,[1],64.5
same,WOMAC Joint Stiffness Subscale Score,[2],62.0
